Test results as given in ChEMBL document CHEMBL6127065, “Design and Synthesis of c-Met and HDAC Dual Inhibitors for the Treatment of Breast Cancer” (ACS Med Chem Lett, 2024).
The source made the active and inactive calls. The calls are words filed in the database; no cut-off is given here.

Key:
MDA-MB-231 [1] = assay: Induction of cell cycle arrest in human MDA-MB-231 cells assessed as accumulation of cells at G2/M phase at 10 uM incubated for 48 hrs by PI staining based flow cytometry (reference value: 29.42 to 32.08%); format: functional
MDA-MB-231 [2] = assay: Induction of cell cycle arrest in human MDA-MB-231 cells assessed as accumulation of cells at S phase at 10 uM incubated for 48 hrs by PI staining based flow cytometry (reference value: 12.56 to 14.76%); format: functional
MDA-MB-231 [3] = assay: Induction of cell cycle arrest in human MDA-MB-231 cells assessed as accumulation of cells at G0/G1 phase at 2.5 uM incubated for 48 hrs by PI staining based flow cytometry (reference value: 55.36 to 55.82%); format: functional
[4] = molecular target: T1, Hepatocyte growth factor receptor (Homo sapiens, UniProt P08581); assay: Inhibition of c-Met in human MDA-MB-231 cells assessed as inhibition of Akt phosphorylation at […] residue incubated for 48 hrs by western blot analysis; format: cell-based; details: dose 1-25 µM
T1 sequence (P08581 whole entry): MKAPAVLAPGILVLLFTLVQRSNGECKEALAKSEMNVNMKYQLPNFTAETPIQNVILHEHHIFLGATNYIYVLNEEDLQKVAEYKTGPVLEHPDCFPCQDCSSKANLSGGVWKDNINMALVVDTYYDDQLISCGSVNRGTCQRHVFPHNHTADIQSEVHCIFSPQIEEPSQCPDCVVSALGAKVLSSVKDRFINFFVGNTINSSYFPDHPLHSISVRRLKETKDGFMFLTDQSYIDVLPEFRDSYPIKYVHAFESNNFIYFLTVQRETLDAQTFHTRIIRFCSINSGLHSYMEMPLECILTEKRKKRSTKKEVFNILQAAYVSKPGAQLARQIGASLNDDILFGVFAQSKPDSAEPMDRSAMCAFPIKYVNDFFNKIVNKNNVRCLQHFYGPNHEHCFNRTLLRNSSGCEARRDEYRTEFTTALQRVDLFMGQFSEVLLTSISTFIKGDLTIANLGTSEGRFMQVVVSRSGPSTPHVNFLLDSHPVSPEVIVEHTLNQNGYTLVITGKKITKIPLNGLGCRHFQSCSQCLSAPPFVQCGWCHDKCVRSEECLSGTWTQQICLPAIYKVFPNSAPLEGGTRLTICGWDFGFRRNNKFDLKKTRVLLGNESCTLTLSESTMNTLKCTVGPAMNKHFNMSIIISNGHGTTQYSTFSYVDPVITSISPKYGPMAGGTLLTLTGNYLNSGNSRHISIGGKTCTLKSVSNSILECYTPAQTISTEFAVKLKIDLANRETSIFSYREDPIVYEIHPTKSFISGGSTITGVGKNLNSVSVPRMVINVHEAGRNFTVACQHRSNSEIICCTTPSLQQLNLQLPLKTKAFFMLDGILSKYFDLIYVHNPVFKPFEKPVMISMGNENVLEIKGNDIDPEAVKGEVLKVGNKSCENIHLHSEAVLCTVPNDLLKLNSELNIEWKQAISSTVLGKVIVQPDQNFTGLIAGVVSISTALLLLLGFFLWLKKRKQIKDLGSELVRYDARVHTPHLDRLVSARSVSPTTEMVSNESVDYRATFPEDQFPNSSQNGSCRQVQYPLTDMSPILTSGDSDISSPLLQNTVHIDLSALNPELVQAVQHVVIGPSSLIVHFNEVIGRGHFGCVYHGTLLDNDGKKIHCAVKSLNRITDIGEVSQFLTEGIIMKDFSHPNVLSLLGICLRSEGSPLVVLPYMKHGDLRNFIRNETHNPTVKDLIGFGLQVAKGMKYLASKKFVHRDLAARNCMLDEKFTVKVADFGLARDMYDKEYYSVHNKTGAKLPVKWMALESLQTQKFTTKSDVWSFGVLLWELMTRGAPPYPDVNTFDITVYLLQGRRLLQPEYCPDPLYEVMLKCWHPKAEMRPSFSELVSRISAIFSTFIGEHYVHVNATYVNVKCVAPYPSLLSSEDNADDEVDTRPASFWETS

MDA-MB-231 [5] = assay: Induction of apoptosis in human MDA-MB-231 cells assessed as late apoptotic cells at 2.5 uM incubated for 48 hrs by AnnexinV-FITC/PI staining based flow cytometry (reference value: 3.77 to 3.84%); format: functional
MDA-MB-231 [6] = assay: Induction of apoptosis in human MDA-MB-231 cells assessed as necrotic cells at 5 uM incubated for 48 hrs by AnnexinV-FITC/PI staining based flow cytometry (reference value: 1.79 to 2.53%); format: functional
MDA-MB-231 [7] = assay: Induction of apoptosis in human MDA-MB-231 cells assessed as upregulation of cleaved PARP level at 1 to 25 uM incubated for 48 hrs by western blot analysis; format: functional, cell-based; details: dose 1-25 µM
MDA-MB-231 [8] = assay: Induction of cell cycle arrest in human MDA-MB-231 cells assessed as accumulation of cells at S phase at 25 uM incubated for 48 hrs by PI staining based flow cytometry (reference value: 12.56 to 14.76%); format: functional
MDA-MB-231 [9] = assay: Induction of apoptosis in human MDA-MB-231 cells assessed as early apoptotic cells at 25 uM incubated for 48 hrs by AnnexinV-FITC/PI staining based flow cytometry (reference value: 1.6 to 2.41%); format: functional
MDA-MB-231 [10] = assay: Induction of apoptosis in human MDA-MB-231 cells assessed as early apoptotic cells at 10 uM incubated for 48 hrs by AnnexinV-FITC/PI staining based flow cytometry (reference value: 1.6 to 2.41%); format: functional
MDA-MB-231 [11] = assay: Induction of apoptosis in human MDA-MB-231 cells assessed as necrotic cells at 10 uM incubated for 48 hrs by AnnexinV-FITC/PI staining based flow cytometry (reference value: 1.79 to 2.53%); format: functional
[12] = molecular target: T1, Hepatocyte growth factor receptor; assay: Inhibition of c-Met in human MDA-MB-231 cells assessed as inhibition of ERK phosphorylation incubated for 48 hrs by western blot analysis; format: cell-based; details: dose 1-25 µM
MDA-MB-468 = assay: Antiproliferative activity against human MDA-MB-468 cells assessed as reduction in cell growth incubated for 72 hrs by MTT assay; details: MDA-MB-468, 72 h
MDA-MB-231 [13] = assay: Antiproliferative activity against human MDA-MB-231 cells assessed as reduction in cell growth incubated for 72 hrs by MTT assay; details: MDA-MB-231, 72 h
MDA-MB-231 [14] = assay: Induction of apoptosis in human MDA-MB-231 cells assessed as early apoptotic cells at 2.5 uM incubated for 48 hrs by AnnexinV-FITC/PI staining based flow cytometry (reference value: 1.6 to 2.41%); format: functional
MDA-MB-231 [15] = assay: Induction of apoptosis in human MDA-MB-231 cells assessed as early apoptotic cells at 5 uM incubated for 48 hrs by AnnexinV-FITC/PI staining based flow cytometry (reference value: 1.6 to 2.41%); format: functional
MDA-MB-231 [16] = assay: Induction of cell cycle arrest in human MDA-MB-231 cells assessed as accumulation of cells at G0/G1 phase at 1 uM incubated for 48 hrs by PI staining based flow cytometry (reference value: 55.36 to 55.82%); format: functional
MDA-MB-231 [17] = assay: Induction of cell cycle arrest in human MDA-MB-231 cells assessed as accumulation of cells at G2/M phase at 2.5 uM incubated for 48 hrs by PI staining based flow cytometry (reference value: 29.42 to 32.08%); format: functional
[18] = molecular target: T1, Hepatocyte growth factor receptor; assay: Inhibition of c-Met (unknown origin) using Poly(Glu:Tyr)(4:1) and ATP as substrate incubated for 45 mins by Kinase-Glo Max reagent based luminescence analysis
MDA-MB-231 [19] = assay: Induction of cell cycle arrest in human MDA-MB-231 cells assessed as accumulation of cells at G0/G1 phase at 10 uM incubated for 48 hrs by PI staining based flow cytometry (reference value: 55.36 to 55.82%); format: functional
MDA-MB-231 [20] = assay: Induction of apoptosis in human MDA-MB-231 cells assessed as necrotic cells at 2.5 uM incubated for 48 hrs by AnnexinV-FITC/PI staining based flow cytometry (reference value: 1.79 to 2.53%); format: functional
MDA-MB-231 [21] = assay: Induction of apoptosis in human MDA-MB-231 cells assessed as necrotic cells at 25 uM incubated for 48 hrs by AnnexinV-FITC/PI staining based flow cytometry (reference value: 1.79 to 2.53%); format: functional
MDA-MB-453 = assay: Antiproliferative activity against human MDA-MB-453 cells assessed as reduction in cell growth incubated for 72 hrs by MTT assay; details: MDA-MB-453, 72 h
MDA-MB-231 [22] = assay: Induction of apoptosis in human MDA-MB-231 cells assessed as viable cells at 10 uM incubated for 48 hrs by AnnexinV-FITC/PI staining based flow cytometry (reference value: 91.22 to 92.84%); format: functional; details: read-out: Activity
MDA-MB-231 [23] = assay: Anti-migration activity in human MDA-MB-231 cells assessed as inhibition of cell invasion incubated for 72 hrs by Transwell assay; format: functional, cell-based; details: dose 1-25 µM
MDA-MB-231 [24] = assay: Induction of apoptosis in human MDA-MB-231 cells assessed as late apoptotic cells at 25 uM incubated for 48 hrs by AnnexinV-FITC/PI staining based flow cytometry (reference value: 3.77 to 3.84%); format: functional
[25] = molecular target: T1, Hepatocyte growth factor receptor; assay: Inhibition of c-Met in human MDA-MB-231 cells assessed as inhibition of Akt phosphorylation at Ser473 residue incubated for 48 hrs by western blot analysis; format: cell-based; details: dose 1-25 µM
MDA-MB-231 [26] = assay: Inhibition of colony formation in human MDA-MB-231 cells at 1 to 25 uM incubated for 7 days by crystal violet staining based analysis; format: functional, cell-based; details: dose 1-25 µM, time 7.0 day
MDA-MB-231 [27] = assay: Induction of apoptosis in human MDA-MB-231 cells assessed as viable cells at 5 uM incubated for 48 hrs by AnnexinV-FITC/PI staining based flow cytometry (reference value: 91.22 to 92.84%); format: functional; details: read-out: Activity
MDA-MB-231 [28] = assay: Induction of cell cycle arrest in human MDA-MB-231 cells assessed as accumulation of cells at S phase at 1 uM incubated for 48 hrs by PI staining based flow cytometry (reference value: 12.56 to 14.76%); format: functional
MDA-MB-231 [29] = assay: Induction of cell cycle arrest in human MDA-MB-231 cells assessed as accumulation of cells at S phase at 2.5 uM incubated for 48 hrs by PI staining based flow cytometry (reference value: 12.56 to 14.76%); format: functional

- inhibition [4]: Dose-Dependent Effect
- inhibition [12]: Dose-Dependent Effect
- IC50 (MDA-MB-468): 1.25 µM
- IC50 (MDA-MB-231 [13]): 3.57 µM
- IC50 [18]: 0.0289 µM
- IC50 (MDA-MB-453): 5.47 µM
- inhibition [25]: Dose-Dependent Effect
Structure (SMILES): CC(c1ccc2ncccc2c1)n1nnc2ncc(N3CCN(Cc4ccc(/C=C/C(=O)Nc5ccccc5N)cc4)CC3)nc21 (stereo unspecified)
- Activity (MDA-MB-231 [1]): 16.08%
- Activity (MDA-MB-231 [2]): 8.21%
- Activity (MDA-MB-231 [3]): 67.14%
- Activity (MDA-MB-231 [5]): 6.97%
- Activity (MDA-MB-231 [6]): 4.59%
- Activity (MDA-MB-231 [7]): Active
- Activity (MDA-MB-231 [8]): 6.06%
- Activity (MDA-MB-231 [9]): 3.51%
- Activity (MDA-MB-231 [10]): 4.56%
- Activity (MDA-MB-231 [11]): 1.67%
- Activity (MDA-MB-231 [14]): 4.92%
- Activity (MDA-MB-231 [15]): 3.1%
- Activity (MDA-MB-231 [16]): 65.34%
- Activity (MDA-MB-231 [17]): 23.33%
- Activity (MDA-MB-231 [19]): 75.71%
- Activity (MDA-MB-231 [20]): 3.83%
- Activity (MDA-MB-231 [21]): 1.42%
- viability at 10 µM (MDA-MB-231 [22]): 83.1%
- Activity (MDA-MB-231 [23]): Dose-Dependent Effect
- Activity (MDA-MB-231 [24]): 12.3%
- inhibition (MDA-MB-231 [26]): Dose-Dependent Effect
- viability at 5 µM (MDA-MB-231 [27]): 85.5%
- Activity (MDA-MB-231 [28]): 7.57%
- Activity (MDA-MB-231 [29]): 9.53%
